# Measured values published in US20250092031A1, “RIPK3 INHIBITORS AND METHODS OF USE” (Momentum Therapeutics, Inc., priority 2023, published 2025).
# Legend:
# RIPK3 = target: T1, RIPK3 (Homo sapiens, UniProt Q9Y572); assay: RIPK3 kinase assay (radiometric HotSpot, Reaction Biology Corporation); format: biochemical
# T1 construct: purchased Reaction Biology Corporation (RBC), Malvern, USA (contract assay service)
# Experimental: The assays were performed in Reaction Biology Corporation (RBC), Malvern, USA. Compounds were diluted with DMSO to a final stock concentration of 10 mM and then were tested in a 10-dose IC50 mode with a 3-fold serial dilution starting at […]. All the reactions were carried out at 10 μM ATP and MBP 20 μM as substrates. RIPK3 activity was determined using radiometric HotSpot™ kinase assay protocol and IC50 values were calculated use GraphPad Prism software.
# Murine L929 cells = assay: Necroptosis inhibition assay in L929 cells (mTNFα + zVAD, Sytox Green); format: cell-based; conditions: Mus musculus, 10 ng/ml mTNFα and 20 μM zVAD, 6 hours, Sytox Green fluorescence
# Method in brief: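 Murine L929 cells, treated 48 h after seeding with 10 ng/ml mTNFα plus 20 μM zVAD and compound ([…]), 6 h at 37° C. Necroptosis read by Sytox Green fluorescence (500ex/530em), scaled between 0.1% DMSO and TNFα+zVAD wells; IC50 from inhibition curves.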
# Human HT-29 cells = assay: Necroptosis inhibition assay in HT-29 cells (hTNFα + zVAD + SMAC mimetic, Sytox Green/Hoechst); format: cell-based; conditions: 10 ng/ml hTNFα, 20 μM zVAD and 100 nM SMAC mimetic, 6 hours, Sytox/Hoechst positive cells, read-out: HT29 necroptosis inhibition IC50
# Method in brief: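 Cells stimulated 48 h after seeding with 10 ng/ml hTNFα, 20 μM zVAD and 100 nM SMAC mimetic plus compound, 6 h at 37 °C. Sytox Green and Hoechst positive cells counted by imaging; inhibition scaled between DMSO-treated (100%) and stimulated-only (0%) wells, IC50 by curve fitting.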
# T1 sequence (Q9Y572 whole entry): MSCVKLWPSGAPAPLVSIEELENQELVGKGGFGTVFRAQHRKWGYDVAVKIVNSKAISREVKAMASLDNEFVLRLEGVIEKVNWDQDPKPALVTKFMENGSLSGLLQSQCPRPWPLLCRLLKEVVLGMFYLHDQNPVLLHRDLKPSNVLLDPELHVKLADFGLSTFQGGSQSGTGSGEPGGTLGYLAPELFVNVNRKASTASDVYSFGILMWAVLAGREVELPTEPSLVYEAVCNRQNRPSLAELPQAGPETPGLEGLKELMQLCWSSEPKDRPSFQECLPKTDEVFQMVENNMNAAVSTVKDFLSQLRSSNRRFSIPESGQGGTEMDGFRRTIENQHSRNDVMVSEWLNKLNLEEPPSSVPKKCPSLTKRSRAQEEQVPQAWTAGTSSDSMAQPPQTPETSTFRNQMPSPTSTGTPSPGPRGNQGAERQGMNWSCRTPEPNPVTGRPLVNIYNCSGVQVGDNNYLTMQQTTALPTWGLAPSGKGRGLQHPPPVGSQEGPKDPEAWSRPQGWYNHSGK
IC50 (RIPK3),SMILES,IC50 (Murine L929 cells),IC50 (Human HT-29 cells)
0.133 nM,"Fc1cc(CN2CCNCC2)ccc1-c1ccc2nccc(Nc3ccc4scnc4c3)c2c1 [Compound 41, N-(6-(2-fluoro-4-(piperazin-1-ylmethyl)phenyl)quinolin-4-yl)benzo[d]thiazol-5-amine]",365 nM,86.8 nM
0.162 nM,"Fc1cc(CN2CCCCC2)ccc1-c1ccc2c(Nc3ccc4scnc4c3)ccnc2c1 [Compound 43, N-(7-(2-fluoro-4-(piperidin-1-ylmethyl)phenyl)quinolin-4-yl)benzo[d]thiazol-5-amine]",188 nM,93.9 nM
0.86 nM,"O=c1ccccn1Cc1ccc(-c2ccc3nccc(Nc4ccc5scnc5c4)c3c2)c(F)c1 [Compound 47, 1-(4-(4-(benzo[d]thiazol-5-ylamino)quinolin-6-yl)-3-fluorobenzyl)pyridin-2(1H)-one]",421 nM,1020 nM
0.102 nM,"c1cc(Nc2ccc3scnc3c2)c2ccc(-c3ccc(OCCN4CCCCC4)cc3)cc2n1 [Compound 50, N-(7-(4-(2-(piperidin-1-yl)ethoxy)phenyl)quinolin-4-yl)benzo[d]thiazol-5-amine]",320 nM,708 nM
1.88 nM,"Fc1cc(CN2CC3(CCOCC3)C2)ccc1-c1ccc2nccc(Nc3ccc4scnc4c3)c2c1 [Compound 51, N-(6-(4-(7-oxa-2-azaspiro[3.5]nonan-2-ylmethyl)-2-fluorophenyl)quinolin-4-yl)benzo[d]thiazol-5-amine]",832 nM,1200 nM
0.57 nM,"Fc1cc(CN2CC3(CCOCC3)C2)ccc1-c1ccc2c(Nc3ccc4scnc4c3)ccnc2c1 [Compound 52, N-(7-(4-(7-oxa-2-azaspiro[3.5]nonan-2-ylmethyl)-2-fluorophenyl)quinolin-4-yl)benzo[d]thiazol-5-amine]",323 nM,505 nM
0.72 nM,"O=C(c1ccc(-c2ccc3nccc(Nc4ccc5scnc5c4)c3c2)c(F)c1)N1CCCCC1 [Compound 53, (4-(4-(benzo[d]thiazol-5-ylamino)quinolin-6-yl)-3-fluorophenyl)(piperidin-1-yl)methanone]",513 nM,705 nM
0.308 nM,"Fc1cc(CN2CCCC2)ccc1-c1ccc2c(Nc3ccc4scnc4c3)ccnc2c1 [Compound 54, N-(7-(2-fluoro-4-(pyrrolidin-1-ylmethyl)phenyl)quinolin-4-yl)benzo[d]thiazol-5-amine]",201 nM,630 nM
0.029 nM,"O=C(c1ccc(-c2ccc3c(Nc4ccc5scnc5c4)ccnc3c2)c(F)c1)N1CCCCC1 [Compound 61, (4-(4-(benzo[d]thiazol-5-ylamino)quinolin-7-yl)-3-fluorophenyl)(piperidin-1-yl)methanone]",93.3 nM,94.2 nM
1.75 nM,"O=C(c1ccc(-c2ccc3nccc(Nc4ccc5scnc5c4)c3c2)c(F)c1)N1CCNCC1 [Compound 249, (4-(4-(benzo[d]thiazol-5-ylamino)quinolin-6-yl)-3-fluorophenyl)(piperazin-1-yl)methanone]",1260 nM,67.9 nM
6.89 nM,"O=C1CN(C(=O)c2ccc(-c3ccc4c(Nc5ccc6scnc6c5)ccnc4c3)c(F)c2)CCN1 [Compound 276, 4-(4-(4-(benzo[d]thiazol-5-ylamino)quinolin-7-yl)-3-fluorobenzoyl)piperazin-2-one]",553 nM,538 nM
1.13 nM,"O=C(c1ccc(-c2ccc3c(Nc4ccc5scnc5c4)ccnc3c2)c(F)c1)N1CC2(CNC2)C1 [Compound 284, (4-(4-(benzo[d]thiazol-5-ylamino)quinolin-7-yl)-3-fluorophenyl)(2,6-diazaspiro[3.3]heptan-2-yl)methanone]",960 nM,386 nM
3.14 nM,"O=C(c1ccc(-c2ccc3nccc(Nc4ccc5scnc5c4)c3c2)c(F)c1)N1CC2(CNC2)C1 [Compound 285, (4-(4-(benzo[d]thiazol-5-ylamino)quinolin-6-yl)-3-fluorophenyl)(2,6-diazaspiro[3.3]heptan-2-yl)methanone]",2710 nM,129 nM
3.67 nM,"Fc1cc(CN2CC3(CNC3)C2)ccc1-c1ccc2nccc(Nc3ccc4scnc4c3)c2c1 [Compound 292, N-(6-(4-((2,6-diazaspiro[3.3]heptan-2-yl)methyl)-2-fluorophenyl)quinolin-4-yl)benzo[d]thiazol-5-amine]",1780 nM,159 nM
